Patent publication EP0028305A1, “Diaryl compounds and pharmaceutical formulations containing them” (THE WELLCOME FOUNDATION LIMITED, priority 1979, dated 1981)
Counter-ions that a name gives are not always drawn. Like-named read-outs stand apart in the source and are kept apart here.

How the values were obtained:
virus [1] = assay: plaque reduction (PR) test; type: cell-based; conditions: read-out: PR(ED50/µM)
Experimental: (§1) Activity may be detected by the plaque inhibition (PI) test and measured by the plaque reduction (PR) test. Both assays involve the formation of a monolayer cell culture in a petri dish followed by infection with a virus suspension, and then overlaying the culture with nutrient agarose in the form of a gel. This gel ensures that there is no spread of virus throughout the culture and thus areas of localised cell destruction or plaques are formed.
Detectable activity is measured with the plaque reduction assay. A range of concentrations of compounds of known molarity are incorporated in the nutrient agarose overlay. Plaque suppression is proportional to compound concentration. Plaque numbers are expressed as percentages of a control, and a dose response curve may be drawn. From this curve 50% of the effective dose (ED50) may be estimated.

virus [2] = assay: intranasal administration, simulation in vitro (plaque formation, compound applied to petri dish lid); type: cell-based; conditions: lug dissolved in ethanol, applied to lids of petri dishes, ethanol evaporated; compound penetrated the agarose layer
Source text: as §1
In the plaque inhibition test a filter paper disc which holds 0.01 ml when impregnated with a solution of a compound is placed on top of the agarose gel. The compound may then diffuse throughout the gel so that its greatest concentration will be around the disc and its lowest concentration towards the periphery of the petri dish. The efficacy of the compound may be detected by observing the zone of inhibition of plaque formation.
Petri dishes were prepared, as for the plaque inhibition test and the confluer sheet of cells was covered with a layer of agarose gel. The compound, of Example 12 (lug) was dissolved in ethanol, and applied to the lids of the petri dishes. When the ethanol had evaporated, leaving the compound spread over the inside of the lids, these were replaced on the petri dishes.

[3] = plaque reduction assay, compound incorporated in nutrient agarose overlay
[4] = second value printed in parentheses in the same cell, meaning not explained

Row | Structure (SMILES) | EC50 (virus [1]; [3]) [µM] | inhibition of plaque formation (virus [2]) | EC50 (virus [1]; [4]) [µM]
1 | Clc1cc(COc2ccccc2)cc(Cl)c1Cl [Example 10, 3,4,5-Trichlorobenzyl phenyl ether] | 1.6 |  | 
2 | Clc1ccc(CNc2ccccc2)cc1Cl [Example 1, N-3,4-dichlorobenzylaniline hydrochloride] | 0.17 |  | 
3 | OC(CCc1ccc(Cl)cc1)c1ccc(Cl)cc1 (stereo not drawn) [Example 13, 1,3-bis-(4-chlorophenyl)propan-1-ol] | 1.3 |  | 
4 | OC(C=Cc1ccc(Cl)c(Cl)c1)c1ccccc1 (stereo not drawn) [Example 17, 3-(3,4-dichlorophenyl)-l-phenylprop-2-en-l-ol] | 1.2 |  | 
5 | Clc1ccc(CCCc2ccccc2)cc1Cl [Example 12, 1-(3,4-dichlorophenyl)-3-phenylpropane] | 0.068 | total inhibition | 
6 | NC(=S)c1ccc(OCc2ccc(Cl)cc2)cc1 [Example 21, 4-(4-chlorobenzyloxy)benzenecarbothioamide] | 0.6 |  | 
7 | O=C(CCc1ccc(Cl)c(Cl)c1)c1ccccc1 [Example 15, 3-(3,4-dichlorophenyl)-1-phenylpropan-1-one] | 0.235 |  | 
8 | CC(C)(C)c1cccc(OCc2ccc(Cl)cc2)c1 [Example 4, 4-Chlorobenzyl 3-t-butylphenyl ether] | 1.9 |  | 5
9 | OC(CNc1ccc(Cl)cc1)c1ccc(Cl)cc1 (stereo not drawn) [Example 24, 2-(4-chloroanilino)-1-(4-chlorophenyl)ethanol] | 3 |  | 
10 | Clc1ccc(COc2ccc(Cl)c(Cl)c2)cc1 [Example 11, 4-Chlorobenzyl 3,4-dichlorophenyl ether] | 0.33 |  | 
11 | Clc1ccc(COc2ccc(Cl)c(Cl)c2)cc1Cl [Example 5, 3,4-Dichlorobenzyl 3,4-dichlorophenyl ether] | 0.47 |  | 
12 | OCc1cccc(OCc2ccc(Cl)cc2)c1 [Example 23, 4-chlorobenzyl 3-hydroxymethylphenyl ether] | 0.53 |  | 
13 | O=C(O)c1ccc(OCc2ccc(Cl)cc2)cc1 [Example 9, 4-Chlorobenzyl 4-carboxyphenyl ether] | 1.6 |  | 
14 | Cc1ccc(COc2ccc(C)cc2)cc1 [Example 8, 4-Methylbenzyl 4-methylphenyl ether] | 0.56 |  | 
15 | OC(COc1ccc(Cl)c(Cl)c1)c1ccccc1 (stereo not drawn) [Example 20, 2-(3,4-dichloro^phenoxy)-l-phenylethanol] | 2.5 |  | 
16 | CCc1ccc(OCc2ccc(Cl)cc2)cc1 [Example 3, 4-Chlorobenzyl 4-ethylphenyl ether] | 0.72 |  | 
17 | OC(CCc1ccc(Cl)c(Cl)c1)c1ccccc1 (stereo not drawn) [Example 14, 3-(3,4-dichlorophenyl)-1-phenylpropan-1-ol] | 0.66 |  | 
18 | FC(F)(F)c1cccc(OCc2ccccc2)c1 [Example 6, Benzyl 3-trifluoromethylphenyl ether] | 0.66 |  | 1.7
19 | OC(COc1ccc(Cl)cc1)c1ccc(Cl)cc1 (stereo not drawn) [Example 19, 2-(4-chlorophenoxy)-1-(4-chlorophenyl)ethanol] | 1.5 |  | 
20 | N#Cc1ccc(OCc2ccc(Cl)cc2)cc1 [Example 7, 4-Chlorobenzyl 4-cyanophenyl ether] | 0.22 |  | 
21 | Clc1ccc(CC=Cc2ccccc2)cc1Cl [Example 16, 3-(3,4-dichlorophenyl)-1-phenylpropene] | 0.19 |  | 
22 | OC(C=Cc1ccc(Cl)cc1)c1ccc(Cl)cc1 (stereo not drawn) [Example 18, 1,3-bis-(4-chlorophenyl)prop-2-en-1-ol] | 1.35 |  | 
23 | O=[N+]([O-])c1ccccc1OCc1ccc(Cl)cc1 [Example 2, 4-chlorobenzyl 2-nitrophenyl ether] | 1.2 |  | 
24 | NC(=O)c1ccc(OCc2ccc(Cl)cc2)cc1 [Example 22, 4-(4-chlorobenzyloxy)benzamide] | 0.43 |  | 
